Test results taken from BindingDB's records for doi:10.1021/jm200304y (Kyoto University, 2011).

Experiment: Inhibition of SREBP2 activation expressed in CHO-K1 cells co-transfected with pSRE-Luc plasmid assessed as inhibition of luciferase expression after 20 hrs by luciferase reporter gene assay

For `CCCc1cc(-c2nc(-c3ccc(OC(=O)c4ccccc4)cc3)cs2)ccn1`, which IC50 is on record?
Its IC50 is 7.7 µM.

Which IC50 does the source give for `CCCc1cc(-c2nc(-c3ccc(O)cc3)cs2)ccn1` here?
Its IC50 is 9.6 µM.

For `CCCc1cc(-c2nc(-c3ccccc3O)cs2)ccn1`, which IC50 is on record?
The IC50 was 14.4 µM.

With `CCCc1cc(-c2nc(-c3cccc(O)c3)cs2)ccn1` as the molecule, how does the IC50 read?
The IC50 was 9.5 µM.

Which IC50 does the source give for `CCCc1cc(-c2nc(-c3cccc(OC)c3)cs2)ccn1` here?
The IC50 was 10.2 µM.

With `CCCc1cc(-c2nc(-c3ccc(NC(C)=O)cc3)cs2)ccn1` as the molecule, how does the IC50 read?
Its IC50 is 7.1 µM.

For `CCCc1cc(-c2nc(-c3ccc(NS(C)(=O)=O)cc3)cs2)ccn1`, which IC50 is on record?
Its IC50 is 0.7 µM.

With `CCCc1cc(-c2nc(-c3ccc(OC)cc3)cs2)ccn1` as the molecule, how does the IC50 read?
Its IC50 is 13 µM.

With `CCCc1cc(-c2nc(-c3ccc(NC(=O)OC(C)(C)C)cc3)cs2)ccn1` as the molecule, how does the IC50 read?
Its IC50 is 1.9 µM.

For `CCCc1cc(-c2nc(-c3ccccc3OC)cs2)ccn1`, which IC50 is on record?
The IC50 was 3.2 µM.

Which IC50 does the source give for `CCCc1cc(-c2nc(-c3ccc(N)cc3)cs2)ccn1` here?
Its IC50 is 8.6 µM.

Which IC50 does the source give for `CCCc1cc(-c2nc(-c3ccc(NS(=O)(=O)c4cccs4)cc3)cs2)ccn1` here?
Its IC50 is 0.9 µM.

For `CCc1cc(-c2nc(-c3ccc(C)cc3)cs2)ccn1`, which IC50 is on record?
Its IC50 is 6.8 µM.

With `Cc1ccc(-c2csc(-c3ccncc3)n2)cc1` as the molecule, how does the IC50 read?
Its IC50 is greater than 30 µM.

For `CCCc1cc(-c2nc(-c3cccs3)cs2)ccn1`, which IC50 is on record?
Its IC50 is 14.7 µM.

With `CCCc1cc(-c2nc(-c3ccc(F)cc3)cs2)ccn1` as the molecule, how does the IC50 read?
The IC50 was 12.4 µM.

For `CCCc1cc(-c2nc(-c3ccc(Cl)cc3)cs2)ccn1` [SMR000177579], which IC50 is on record?
Its IC50 is 10.7 µM.

Which IC50 does the source give for `CCCc1cc(-c2nc(-c3ccccc3)cs2)ccn1` here?
Its IC50 is 23 µM.

With `Cc1ccc(-c2csc(-c3ccccc3)n2)cc1` as the molecule, how does the IC50 read?
Its IC50 is 18.6 µM.

Which IC50 does the source give for `CCCc1cc(-c2nc(-c3ccc(NCc4ccccc4)cc3)cs2)ccn1` here?
The IC50 was 3 µM.

For `CCCc1cc(-c2nc(-c3ccc(NCC4CC4)cc3)cs2)ccn1`, which IC50 is on record?
Its IC50 is 4.9 µM.

With `C[C@H](CCCC(C)(C)O)[C@H]1CC[C@H]2[C@@H]3CC=C4C[C@@H](O)CC[C@]4(C)[C@H]3CC[C@]12C` [(1S,2R,5S,10S,11S,14R,15R)-14-[(2R)-6-hydroxy-6-methylheptan-2-yl]-2,15-dimethyltetracyclo[8.7.0.0^{2,7}.0^{11,15}]heptadec-7-en-5-ol] as the molecule, how does the IC50 read?
The IC50 was 0.3 µM.

With `CCCc1cc(-c2nc(-c3ccc(NS(=O)(=O)c4ccc(C)cc4)cc3)cs2)ccn1` as the molecule, how does the IC50 read?
The IC50 was 2.3 µM.

For `CCCc1cc(-c2nc(-c3ccc(C)cc3)cs2)ccn1` [SMR000221636], which IC50 is on record?
The IC50 was 5.6 µM.

With `CCCc1cc(-c2nc(-c3ccc(NC(C)C)cc3)cs2)ccn1` as the molecule, how does the IC50 read?
The IC50 was 2.8 µM.

For `CCCc1cc(-c2nc(-c3ccc(Br)cc3)cs2)ccn1`, which IC50 is on record?
Its IC50 is 9.8 µM.

Which IC50 does the source give for `CCCc1cc(-c2ccc(-c3ccc(C)cc3)cc2)ccn1` here?
The IC50 was greater than 30 µM.
